From ChEMBL document CHEMBL3507680, “University of Dundee, Gates Library screen for HepG2 cell viability” come the findings set out here.

Molecules are shown by their SMILES.

This series is described as follows: Human HepG2 cell viability assay in 384 well format. It counts as toxicity, cell-based. Also on record: dose 125 nL, time 70.5 hour; cytotoxicity at 70.5 h: concentration not given beside the values. The following applies: HepG2 cells, read-out: Inhibition.
Take `COc1cccc(CNC(=O)CCNS(=O)(=O)c2ccc(C)cc2)c1`: the cytotoxicity at 70.5 h was -3.42%.

Turning to `CCOCCCNC(=O)CCSCc1csc(C)n1`, the cytotoxicity at 70.5 h was -2.1%.

Consider `CS(=O)(=O)NCC1CCCCN1C(=O)c1ccsc1` (stereo not drawn), for which the cytotoxicity at 70.5 h was -2.66%.

On to `CN(Cc1ccccc1F)C(C(N)=O)c1ccccc1` (stereo not drawn), for which the cytotoxicity at 70.5 h turned out to be 5.98%.

With `Cc1cc(C2CCCN2Cc2ccc(S(=O)(=O)N3CCCC3)o2)on1` (stereo not drawn), the cytotoxicity at 70.5 h was -102%.

Consider `CC(C)N(C)C(=O)c1ccc(CNc2cncc(Cl)n2)cc1`, for which the cytotoxicity at 70.5 h is -115%.

With `CC(C)CC(=O)N1CCN(Cc2csc(-c3ncccn3)n2)CC1`, the cytotoxicity at 70.5 h was -5.3%.

Take `CCSc1cc(C(=O)NCCc2nnc(-c3ccco3)[nH]2)ccn1`: the cytotoxicity at 70.5 h turned out to be 20.1%.

Consider `CC(C)C(C)NC(=O)Nc1cccc2c1CCN(S(C)(=O)=O)C2` (stereo not drawn), for which the cytotoxicity at 70.5 h is -2.03%.

With `Cc1c(C(=O)NCC(C)C)nnn1-c1cccc2c1CCN(C(C)C)C2`, the cytotoxicity at 70.5 h was -0.43%.

Turning to `CCS(=O)(=O)N1CCc2c(cccc2NC(=O)NCCO)C1`, the cytotoxicity at 70.5 h turned out to be 12.8%.

As for `CC(=O)Nc1cccc(OCCNC(=O)N(C)Cc2ccncc2)c1`, the cytotoxicity at 70.5 h was found to be 20.7%.

Take `COc1ccccc1OCCC(=O)NC1CCc2nc(C)cn2C1` (stereo not drawn): the cytotoxicity at 70.5 h is -3.16%.

As for `Cc1cn2c(n1)CCC(NC(=O)CCC1CC1)C2` (stereo not drawn), the cytotoxicity at 70.5 h was -3.09%.

As to `CCC(Nc1cccc(Oc2ccccn2)c1)C(N)=O` (stereo not drawn), the cytotoxicity at 70.5 h is -7.08%.

For `Cn1ncnc1CNC(=O)N(CCCO)C1CCc2ccccc21` (stereo not drawn), the cytotoxicity at 70.5 h was -6.34%.

Take `COc1cc(C(=O)N(Cc2cccs2)C2CC2)cc2c1OCCO2`: the cytotoxicity at 70.5 h worked out at 16%.

On to `Cc1cn2c(n1)CCC(NC(=O)CCCOCc1ccccc1)C2` (stereo not drawn), for which the cytotoxicity at 70.5 h was -12.5%.

On to `CCc1nnc(CN2CCCC(Cn3nc(C)nc3C)C2)o1` (stereo not drawn), for which the cytotoxicity at 70.5 h is -11.6%.

For `COc1ccc(CC(=O)NC2CCc3nc(C)cn3C2)cc1` (stereo not drawn), the cytotoxicity at 70.5 h is -7.41%.

For `CN(C(=O)Cn1nc(-c2ccc(F)cc2)oc1=O)c1ccccc1`, the cytotoxicity at 70.5 h is -11.5%.

Turning to `Cc1cccnc1NC(=O)CNC(=O)c1ccccc1Cl`, the cytotoxicity at 70.5 h was -14.5%.

For `O=C(NCC(O)c1ccc(F)cc1F)c1cccnc1O` (stereo not drawn), the cytotoxicity at 70.5 h was -15.5%.

For the compound `O=C(NC1CC1)c1cc(NC(=O)N2CCCC2)ccc1Cl`, the cytotoxicity at 70.5 h is -13.8%.

Consider `O=C(NC1CC1)c1cc(NC(=O)N2CCOCC2)ccc1Cl`, for which the cytotoxicity at 70.5 h was -15.3%.

Take `O=C(c1ccncc1)N1CCCC1C1CCN(Cc2ccccc2)CC1` (stereo not drawn): the cytotoxicity at 70.5 h was found to be 0.737%.

For the compound `CC(=O)N1CCCN(C(=O)Cc2ccc3c(c2)OCO3)CC1`, the cytotoxicity at 70.5 h was -14.3%.

For the compound `O=C(c1ccoc1)N1CCCC1C1CCN(Cc2ccccc2)CC1` (stereo not drawn), the cytotoxicity at 70.5 h is 23.5%.

Consider `Cc1nc(NC(=O)c2cccnc2N2CCOCC2)sc1C`, for which the cytotoxicity at 70.5 h is -13.9%.

Consider `O=C(CN1CCC(C(=O)c2cc(F)ccc2F)CC1)NC1CC1`, for which the cytotoxicity at 70.5 h was -12%.

As to `CCOc1ncccc1C(=O)NCC(O)c1ccc(F)c(F)c1` (stereo not drawn), the cytotoxicity at 70.5 h was -6.21%.

In the case of `COCCNC(=O)Nc1ccc(C(=O)N2CCSCC2)cc1C`, the cytotoxicity at 70.5 h is -12.4%.

Take `Cc1n[nH]c(C2CN(C(=O)c3ccc4c(c3)CCCC4)CCO2)n1` (stereo not drawn): the cytotoxicity at 70.5 h is 21%.

As to `Cc1n[nH]c(C2CN(C(=O)c3scnc3C)CCO2)n1` (stereo not drawn), the cytotoxicity at 70.5 h was -7.66%.

For the compound `CC(=O)Nc1nc(CN2CCCC2Cn2cccn2)cs1` (stereo not drawn), the cytotoxicity at 70.5 h was -6.85%.

As to `CCN(C(=O)C1CCC1)C(c1cccnc1)c1ccc2c(c1)CCO2` (stereo not drawn), the cytotoxicity at 70.5 h amounted to 38.8%.

As to `CCn1c(C)nnc1CN(C)C1CCN(CCc2cccs2)C1` (stereo not drawn), the cytotoxicity at 70.5 h was 10.5%.

`CCN1CCCN(c2ncccc2C(=O)N2CCCCC2)CC1`: the cytotoxicity at 70.5 h was 9.71%.

Regarding `Cc1nc(CNCC2CCCN2c2cccnn2)oc1C` (stereo not drawn), the cytotoxicity at 70.5 h was -4.96%.

As for `CCOC(=O)N1CCN(CC(=O)Nc2ccc(F)cc2Cl)CC1`, the cytotoxicity at 70.5 h was -8.51%.

With `CC(=O)c1c(F)cccc1N1CCC(NS(=O)(=O)c2ccccc2)CC1`, the cytotoxicity at 70.5 h is 1.15%.

On to `O=C(Nc1nccs1)NC1CCOc2ccccc21` (stereo not drawn), for which the cytotoxicity at 70.5 h is -1.72%.

`Cc1ccc(S(=O)(=O)N(C)CC(N)=O)c(Cl)c1`: the cytotoxicity at 70.5 h is -10.6%.

In the case of `Cc1csc(N2CCN(C(=O)c3cc(Cl)c[nH]3)CC2)n1`, the cytotoxicity at 70.5 h is -0.933%.

Take `O=C(Cn1cc(NC(=O)c2ccc(F)cc2F)cn1)NC1CCCC1`: the cytotoxicity at 70.5 h was -4.45%.

Take `Cc1nn(C(C)C)c(C)c1NC(=O)c1ccc(F)cc1`: the cytotoxicity at 70.5 h is -2.59%.

As to `Cc1noc(C)c1CNC(=O)N1CCN(CC2CC2)CC1`, the cytotoxicity at 70.5 h was -5.87%.

Take `Cc1nn(C(C)C)c(C)c1NC(=O)c1cccnc1`: the cytotoxicity at 70.5 h amounted to 1.88%.

In the case of `CC1Cc2ccccc2N1Cc1occc1C(=O)NCC(=O)N(C)C` (stereo not drawn), the cytotoxicity at 70.5 h was -1.83%.

Take `CCCN(C)c1ccc(C(=O)Nc2c(C)nn(C(C)C)c2C)cc1`: the cytotoxicity at 70.5 h is -3.3%.

Turning to `CCN(CC)c1ccc(NS(=O)(=O)c2cccnc2)cn1`, the cytotoxicity at 70.5 h is -1.98%.

On to `COc1cc(C)nc(N2CCN(C(=O)c3cc(Cl)c[nH]3)CC2)n1`, for which the cytotoxicity at 70.5 h was -1.56%.

With `CNC(=O)COC(=O)c1ccoc1CN1c2ccccc2CC1C` (stereo not drawn), the cytotoxicity at 70.5 h came out at 0.373%.

Regarding `CC(C)Oc1cccc(C(O)CNC(=O)Nc2cccs2)c1` (stereo not drawn), the cytotoxicity at 70.5 h was -4.72%.

Consider `CS(=O)(=O)c1ccc(OCCNCc2c(F)cccc2F)cc1`, for which the cytotoxicity at 70.5 h was -3.48%.

`CS(=O)(=O)c1ccc(OCCNCc2cccc(O)c2)cc1`: the cytotoxicity at 70.5 h was -0.254%.

Turning to `CCS(=O)(=O)N(C)C1CCN(c2cccc(F)c2C(C)=O)CC1`, the cytotoxicity at 70.5 h is -4.38%.

As for `CCN(C(=O)C1CC1)C(c1cccnc1)c1ccc2c(c1)CCO2` (stereo not drawn), the cytotoxicity at 70.5 h is -5.96%.

With `COC(=O)CN1CCN(c2cccc(C)c2)CC1`, the cytotoxicity at 70.5 h was -2.66%.

As for `COCCNC(=O)c1ccoc1CN1c2ccccc2CC1C` (stereo not drawn), the cytotoxicity at 70.5 h was -6.26%.

For `COc1cccc(CN(C)C(=O)CCC(=O)c2ccccc2)c1OC`, the cytotoxicity at 70.5 h is -9.57%.

As to `CCN(C)C(=O)CCC(=O)c1cccs1`, the cytotoxicity at 70.5 h is -7.69%.

As to `NC(=O)CSc1ccccc1NC(=O)C1CCCC1`, the cytotoxicity at 70.5 h is -5.87%.

With `N#Cc1ncn(CCC(=O)Nc2cccc(Cl)c2)n1`, the cytotoxicity at 70.5 h was -8.53%.

Regarding `Cc1cnc(C(=O)N2CCN(Cc3csc(C)n3)CC2)cn1`, the cytotoxicity at 70.5 h is -6.71%.

Turning to `CCS(=O)(=O)CCN1CCN(C(C)c2cccnc2)CC1` (stereo not drawn), the cytotoxicity at 70.5 h amounted to 19.9%.

Take `O=C(CCCc1ccccn1)N1CCSC2(CCCCC2)C1`: the cytotoxicity at 70.5 h came to 18.8%.

For `Cc1n[nH]c(SCC(=O)NC(c2ccccn2)C(C)C)n1` (stereo not drawn), the cytotoxicity at 70.5 h is -0.841%.

For the compound `O=C(COCC1CC1)N1CCSCC1`, the cytotoxicity at 70.5 h stood at 2.26%.

Consider `Cc1ccc(CNC(=O)CNCC2CCN(CCO)CC2)s1`, for which the cytotoxicity at 70.5 h is -1.79%.

Consider `COc1ncccc1C(=O)N1CCCC1c1nc(-c2ccccc2)n[nH]1` (stereo not drawn), for which the cytotoxicity at 70.5 h was -0.047%.

As to `Cc1cc(C2CCCN2C(=O)CN(C)Cc2ccccc2)no1` (stereo not drawn), the cytotoxicity at 70.5 h was -5.16%.

With `CC(C)(O)CN1CCN(C(=O)COC2CCCC2)CC1`, the cytotoxicity at 70.5 h is -2.37%.

As to `O=C(c1ccncc1F)N1CCCC1c1nc(-c2ccccc2)n[nH]1` (stereo not drawn), the cytotoxicity at 70.5 h is -3.44%.

In the case of `Cc1cncc(C(=O)N2CCOc3nc(C)ccc32)c1`, the cytotoxicity at 70.5 h is -7.26%.

In the case of `Cc1cnn(C2CN(CC(=O)N(C)Cc3ccc(C)o3)C2)c1`, the cytotoxicity at 70.5 h stood at 39.8%.

With `CC(C)NC(=O)CN1CCSC2(CCCCC2)C1`, the cytotoxicity at 70.5 h worked out at 18.3%.

For `CC(C)(C)OC(=O)N1CC(CC(=O)NCc2ccsc2)C1`, the cytotoxicity at 70.5 h is 7.8%.

On to `Cc1cc(CNC(=O)CN2CCN(C(=O)OC(C)(C)C)CC2)ccc1F`, for which the cytotoxicity at 70.5 h came to 13.3%.

Turning to `CC(=O)N(C)c1nc(CN2CCN(Cc3nccn3C)CC2)cs1`, the cytotoxicity at 70.5 h amounted to 10.2%.

With `Cc1cn2nc(N3CCCC3C(=O)N3CCSCC3)sc2n1` (stereo not drawn), the cytotoxicity at 70.5 h is -8.52%.

As for `Cc1cc(CNC(=O)Nc2cc(F)cc(N3CCCC3)c2)no1`, the cytotoxicity at 70.5 h is -13.7%.

As to `O=C(Cc1ccccc1Cl)Nc1ccn(CCN2CCOCC2)n1`, the cytotoxicity at 70.5 h is -12.9%.

Regarding `CSc1ccsc1C(=O)NS(=O)(=O)c1cccc(C#N)c1`, the cytotoxicity at 70.5 h is -13.1%.

Regarding `O=C1CCc2cc(S(=O)(=O)NC(=O)c3ccc4c(c3)OCO4)ccc2N1`, the cytotoxicity at 70.5 h was -15.2%.

On to `Cn1c(CN2CCN(CC3CCCO3)CC2)nc2ccccc21` (stereo not drawn), for which the cytotoxicity at 70.5 h was -9.16%.

On to `CCc1cc(CNC(=O)NCc2ccc(N3CCCCC3)cc2)on1`, for which the cytotoxicity at 70.5 h was -7.79%.

In the case of `Cc1cnn(C2CN(CC(=O)N(C)Cc3cccs3)C2)c1`, the cytotoxicity at 70.5 h was -11.5%.

For `Clc1ccc2cccnc2c1CN1CCn2c(nnc2C2CC2)C1`, the cytotoxicity at 70.5 h was -13.3%.

In the case of `Nc1nc(CN2CCN(c3nccs3)CC2)cs1`, the cytotoxicity at 70.5 h was -5.16%.

For the compound `Fc1cccc(Cl)c1CN1CCn2c(nnc2C2CC2)C1`, the cytotoxicity at 70.5 h was -10.3%.

For the compound `CC(=O)N1CCCc2ccc(S(=O)(=O)N3CCCCC3C)cc21` (stereo not drawn), the cytotoxicity at 70.5 h was -3.92%.

Take `CCOc1cccc(CCNC(=O)Cc2ccn[nH]2)n1`: the cytotoxicity at 70.5 h was -7.14%.

Turning to `COCc1ccccc1C(=O)NS(=O)(=O)c1ccc2c(c1)CCC(=O)N2`, the cytotoxicity at 70.5 h is -9.29%.

For the compound `Cc1nnc(N2CCCC2)c(C(N)=O)c1C`, the cytotoxicity at 70.5 h is -6.33%.

As to `CC(C)(C)OC(=O)N1CC(CC(=O)NCc2ccnc(C3CC3)c2)C1`, the cytotoxicity at 70.5 h is -8.99%.

Consider `Cc1nnc2n1CCN(Cc1c(Cl)ccc3cccnc13)C2`, for which the cytotoxicity at 70.5 h came out at 26.2%.

As for `CN(Cc1ccc([S+](C)[O-])cc1)c1ccc(C(F)(F)F)cn1` (stereo not drawn), the cytotoxicity at 70.5 h was -4.29%.

On to `CN(C(=O)c1cccn1C)C1CCC(NC(=O)OC(C)(C)C)CC1` (stereo not drawn), for which the cytotoxicity at 70.5 h was -9.69%.

On to `O=C(COCc1ccccc1)Nc1ccccn1`, for which the cytotoxicity at 70.5 h is 0.318%.

With `Cc1ccc2c(c1)C(NCc1ncnn1C)CC2` (stereo not drawn), the cytotoxicity at 70.5 h was -5.24%.

With `Cn1cnnc1-c1cncc(NCc2cccc3c2OC(C)(C)C3)c1`, the cytotoxicity at 70.5 h stood at 8.22%.

On to `CCCC(C)(C)NC(=O)c1cnc(C)s1`, for which the cytotoxicity at 70.5 h came to 2.45%.
